Laboratory results published in article PMC9037180, “Ligand-based design and synthesis of N'-Benzylidene-3,4-dimethoxybenzohydrazide derivatives as potential antimicrobial agents; evaluation by in vitro, in vivo, and in silico approaches with SAR studies” (Journal of Enzyme Inhibition and Medicinal Chemistry, 2022).
≈ marks a conversion by molar mass, not a printed value.

Columns and labels:
E. coli = experiment: Minimal bactericidal concentration (MBC); assay type: cell-based
Description: (§1) After determining the MIC for the target compounds, the minimal bactericidal concentration (MBC) for each compound that is required to kill each one of the above-mentioned microorganisms was assessed.

S. aureus = experiment: Minimal bactericidal concentration (MBC); assay type: cell-based
Description: as §1

S. aureus ATCC 6538 = experiment: Minimal inhibitory concentration (MIC), broth dilution
Aciento MDR = experiment: as above
S. typhi = experiment: H&E histological examination of liver and kidney, S. typhi infected rats; assay type: in vivo
Description: (§2) Rats were divided randomly into equal fifteen groups, each containing 9 rats as follows: • Group 1: Rats were kept on standard laboratory chow and water ad libitum to serve as a control. • Group 2: Rats have injected IP with sterile distilled water (4ml/kg) daily for one week to serve as a control. • Group 3: Rats have injected IP with DEMSO (dimethyl sulfoxide) (4 ml/kg) daily for one week to serve as a control. • Group 4: Rats have injected IP with 4h (1.9 mg/kg) daily for one week. • Group 5: Rats have injected IP with 4h (3.8 mg/kg) daily for one week. • Group 6: Rats have injected IP with 4i (1.9 mg/kg) daily for one week. • Group 7: Rats have injected IP with 4i (3.8 mg/kg) daily for one week. • Group 8: Rats were infected by a single IM injection of S. aureus strain [1.0 ml) 1 × 10^7) colony-forming units]. • Group 9: Rats have injected IP with 4h (1.9 mg/kg) daily for one week on the 7th day after induction of infection by a single IM injection of S. aureus strain [1.0 ml (1 × 10^7) colony-forming units. • Group 10: Rats have injected IP with 4h (3.8 mg/kg) daily for one week on the 7th day after induction of infection by a single IM injection of S. aureus strain [1.0 ml (1 × 10^7) colony-forming units]. • Group 11: Rats were infected by a single IM injection of S. typhi strain [1.0 ml (1 × 10^7) colony forming units). • Group 12: Rats have injected IP with 4h (1.9 mg/kg) daily for one week. on the 7th day after induction of infection by a single IM injection of S. typhi strain [1.0 ml (1 × 10^7) colony-forming units]. • Group 13: Rats have injected IP with 4h (3.8 mg/kg) daily for one week on the 7th day after infection by a single IM injection of S. typhi strain [1.0 ml (1 × 10^7) colony-forming units]. • Group 14: Rats have injected IP with 4i (1.9 mg/kg) daily for one week. on the 7th day after induction of infection by a single IM injection of S. typhi strain [1.0 ml (1 × 10^7) colony-forming units]. • Group 15: Rats have injected IP with 4i (3.8 mg/kg) daily for one week. on the 7th day after induction of infection by a single IM injection of Salmonella strain [1.0 ml (1 × 10^7) colony-forming units].
(§3) At the end of the experiment, the animals were euthanized through cervical dislocation. After that, the liver and kidney were dissected for histological study. The procedure for histological preparations was described by Bancroft and Stevens[73]. Briefly, liver and kidney tissues were sliced to 3–4 mm thick, fixed in 10% neutral buffered formalin (10% NBF), dehydrated in graded concentrations of ethanol, cleared in xylene, and embedded in paraffin. The paraffin blocks were sectioned with a microtome at (4–6 μm) thickness and dyed with H & E stain to study the general tissue structure.

E. faecalis ATCC 29212 = experiment: Minimal inhibitory concentration (MIC), broth dilution
E. coli ATCC 25922 = experiment: as above
[1] = test system: S. typhi clinical isolate; experiment: as above; assay type: cell-based
A. baumanii ATCC 19606 = experiment: as above
[2] = test system: E. faecalis, Acientobacter, P. auriginosa, S. aureus, S. typhi, E. coli, C. albicans; experiment: Average MIC over the nine tested microbial species (SAR); assay type: cell-based; details: for antimicrobial activity (SAR grading): based on MIC average values
Source text: Herein, we aimed to study the structure-antimicrobial activity relationship of the newly synthesised N'-benzylidene-3,4-dimethoxybenzohydrazide derivatives based on MIC average values[51]^,[52] as represented in the supplementary data (Table SI1). Thereby, the changes in their antimicrobial potential and spectrum upon structural modifications could be unveiled, thus offering clues for structural changes that are capable of increasing the antimicrobial potential.

P. aeruginosa ATCC10145 = experiment: Minimal inhibitory concentration (MIC), broth dilution
Acientobacter sensitive = experiment: as above
[3] = H&E histological examination of liver and kidney, uninfected treated rats; assay type: in vivo; details: for liver histological structure (H&E): 1.9 and 3.8 mg/kg IP daily for one week; for kidney histological structure (H&E): low dose and high dose (1.9 and 3.8 mg/kg IP)
Description: as §2, §3

**Q.** Which results are given for `COc1ccc(C(=O)NN=Cc2ccc3ccccc3n2)cc1OC` [Compound 4i, N'-(quinolin-2-ylmethylene)-3,4-dimethoxybenzohydrazide]?
**A.** MBC (E. coli; Escherichia coli): 186 µM (≈ 62.5 µg/mL); MBC (S. aureus; Staphylococcus aureus): 186 µM (≈ 62.5 µg/mL); MIC (S. aureus ATCC 6538; Staphylococcus aureus, ATCC6538): 46.5 µM (≈ 15.6 µg/mL); MIC (Aciento MDR; Acinetobacter baumannii): 373 µM (≈ 125 µg/mL); kidney pathological changes (H&E) (S. typhi; high dose (3.8 mg/kg)): marked improved renal tissue; liver pathological changes (H&E) (S. typhi; high dose (3.8 mg/kg)): marked improvement in the pathological changes; kidney pathological changes (H&E) (S. typhi; low dose (1.9 mg/kg)): improved pathological changes; liver pathological changes (H&E) (S. typhi; low dose (1.9 mg/kg)): improved pathological changes; MIC (E. faecalis ATCC 29212; Enterococcus faecalis, ATCC29212): 93.4 µM (≈ 31.3 µg/mL); MIC (E. coli ATCC 25922; Escherichia coli, ATCC25922): 23.3 µM (≈ 7.81 µg/mL); MIC ([1]; Salmonella enterica, TYPHI): 93.4 µM (≈ 31.3 µg/mL); MIC (A. baumanii ATCC 19606; Acinetobacter baumannii, ATCC19606): 11.6 µM (≈ 3.9 µg/mL); antimicrobial activity (SAR grading) [2]: weaker antimicrobial potential; MIC ([2]; read-out: Average MIC): 99.7 µM (≈ 33.4 µg/mL); MIC (P. aeruginosa ATCC10145; Pseudomonas aeruginosa, ATCC10145): 186 µM (≈ 62.5 µg/mL); MIC (Acientobacter sensitive; Acinetobacter baumannii): 46.5 µM (≈ 15.6 µg/mL); liver histological structure (H&E) [3]: normal histological structure; kidney histological structure (H&E) [3]: histological structure similar to those of the control groups

**Q.** For “N'-((3a,7a-dihydro-1H-indol-3-yl)methylene)-3,4-dimethoxybenzohydrazide [Compound 4h]”, which MBC (E. coli; E. coli) is on record?
**A.** Its MBC is 96.87 µM.

**Q.** And the MBC (S. aureus; S. aureus)?
**A.** Its MBC is 96.87 µM.

**Q.** What about the MIC (S. aureus ATCC 6538; S. aureus (SA)) of the same compound?
**A.** Its MIC is 5.88 µM.

**Q.** What about the MIC (Aciento MDR; Aciento MDR (AM)) of the same compound?
**A.** Its MIC is 193.40 µM.

**Q.** And the “kidney pathological changes (H&E)” value (S. typhi; high dose (3.8 mg/kg))?
**A.** The value was “marked improved renal tissue”.

**Q.** What about the “liver pathological changes (H&E)” value (S. typhi; high dose (3.8 mg/kg)) of the same compound?
**A.** The value was “marked improvement in the pathological changes”.

**Q.** And the “kidney pathological changes (H&E)” value (S. typhi; low dose (1.9 mg/kg))?
**A.** The value was “improved pathological changes”.

**Q.** And the “liver pathological changes (H&E)” value (S. typhi; low dose (1.9 mg/kg))?
**A.** The value was “improved pathological changes”.

**Q.** And the MIC (E. faecalis ATCC 29212; E. faecalis (EF))?
**A.** The MIC was 96.87 µM.

**Q.** What about the MIC (E. coli ATCC 25922; E. coli (EC)) of the same compound?
**A.** The MIC was 48.28 µM.

**Q.** And the MIC ([1]; S. typhi (ST))?
**A.** Its MIC is 12.07 µM.

**Q.** And the MIC (A. baumanii ATCC 19606; Acientobacter ATCC 19606 (A A))?
**A.** Its MIC is 48.28 µM.

**Q.** What about the “Average MIC” value ([2]; average over nine microbial species) of the same compound?
**A.** Its value is 112.13 µM.

**Q.** And the “antimicrobial activity (SAR grading)” value [2]?
**A.** The value was “weaker antimicrobial potential”.

**Q.** What about the MIC (P. aeruginosa ATCC10145; P. auriginosa (PA)) of the same compound?
**A.** Its MIC is 193.40 µM.

**Q.** And the MIC (Acientobacter sensitive; Acientobacter sensitive (AS))?
**A.** The MIC was 24.17 µM.

**Q.** What about the “liver histological structure (H&E)” value [3] of the same compound?
**A.** The value was “normal histological structure”.

**Q.** And the “kidney histological structure (H&E)” value [3]?
**A.** Its value is “histological structure similar to those of the control groups”.
